ChEMBL document CHEMBL1909046, “DrugMatrix in vitro pharmacology data”

What was measured:
[1] = biological target: T1, 5-hydroxytryptamine receptor 1A (Rattus norvegicus, UniProt P19327); type: cell membranes, CHO-K1, Membrane; conditions: cho-k1; further: in other assays of this panel Not Active means under 50% inhibition at 10 µM
T1 sequence (P19327 whole entry): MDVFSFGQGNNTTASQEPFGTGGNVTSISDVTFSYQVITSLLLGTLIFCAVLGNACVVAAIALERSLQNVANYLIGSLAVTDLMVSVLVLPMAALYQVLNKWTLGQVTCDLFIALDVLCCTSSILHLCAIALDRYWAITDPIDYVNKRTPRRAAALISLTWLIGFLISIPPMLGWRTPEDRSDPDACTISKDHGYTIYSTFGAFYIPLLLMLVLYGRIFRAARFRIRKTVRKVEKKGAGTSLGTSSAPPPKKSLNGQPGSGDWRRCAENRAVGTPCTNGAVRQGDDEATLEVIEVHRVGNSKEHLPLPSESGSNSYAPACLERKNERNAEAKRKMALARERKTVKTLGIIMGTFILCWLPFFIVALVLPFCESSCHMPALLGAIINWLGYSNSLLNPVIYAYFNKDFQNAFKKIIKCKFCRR

[2] = biological target: C-C chemokine receptor type 5 (Homo sapiens, UniProt P51681); type: cell membranes, Membrane; conditions: hek293; further: in other assays of this panel Not Active means under 50% inhibition at 10 µM
[3] = biological target: T2, Alpha-1A adrenergic receptor (Rattus norvegicus, UniProt P43140); test: DRUGMATRIX: Alpha-1A adrenergic receptor radioligand binding (ligand: prazosin); type: cell membranes, Wistar, Submaxillary gland, Membrane; conditions: Not Active = under 50% inhibition at 10 µM
T2 sequence (P43140 whole entry): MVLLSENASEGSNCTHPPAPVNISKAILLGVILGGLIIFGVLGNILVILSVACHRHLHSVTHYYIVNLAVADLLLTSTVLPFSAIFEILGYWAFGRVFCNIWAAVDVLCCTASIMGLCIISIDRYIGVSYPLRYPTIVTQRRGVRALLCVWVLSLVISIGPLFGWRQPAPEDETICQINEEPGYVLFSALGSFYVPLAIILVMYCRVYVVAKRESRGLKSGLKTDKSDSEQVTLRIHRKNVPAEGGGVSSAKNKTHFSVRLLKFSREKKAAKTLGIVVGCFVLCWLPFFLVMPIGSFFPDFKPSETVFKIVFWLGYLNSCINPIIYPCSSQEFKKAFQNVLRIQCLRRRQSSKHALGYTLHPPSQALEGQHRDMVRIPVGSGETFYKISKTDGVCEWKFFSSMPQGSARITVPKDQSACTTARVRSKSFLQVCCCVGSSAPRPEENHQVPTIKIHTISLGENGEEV

[4] = biological target: T3, Receptor-type tyrosine-protein phosphatase C (Homo sapiens, UniProt P08575); design: species or system Escherichia coli;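 further: inhibition of CD45 enzyme activity measured using DiFMUP as substrate; in other assays of this panel Not Active means under 50% inhibition at 10 µM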
T3 sequence (P08575 whole entry): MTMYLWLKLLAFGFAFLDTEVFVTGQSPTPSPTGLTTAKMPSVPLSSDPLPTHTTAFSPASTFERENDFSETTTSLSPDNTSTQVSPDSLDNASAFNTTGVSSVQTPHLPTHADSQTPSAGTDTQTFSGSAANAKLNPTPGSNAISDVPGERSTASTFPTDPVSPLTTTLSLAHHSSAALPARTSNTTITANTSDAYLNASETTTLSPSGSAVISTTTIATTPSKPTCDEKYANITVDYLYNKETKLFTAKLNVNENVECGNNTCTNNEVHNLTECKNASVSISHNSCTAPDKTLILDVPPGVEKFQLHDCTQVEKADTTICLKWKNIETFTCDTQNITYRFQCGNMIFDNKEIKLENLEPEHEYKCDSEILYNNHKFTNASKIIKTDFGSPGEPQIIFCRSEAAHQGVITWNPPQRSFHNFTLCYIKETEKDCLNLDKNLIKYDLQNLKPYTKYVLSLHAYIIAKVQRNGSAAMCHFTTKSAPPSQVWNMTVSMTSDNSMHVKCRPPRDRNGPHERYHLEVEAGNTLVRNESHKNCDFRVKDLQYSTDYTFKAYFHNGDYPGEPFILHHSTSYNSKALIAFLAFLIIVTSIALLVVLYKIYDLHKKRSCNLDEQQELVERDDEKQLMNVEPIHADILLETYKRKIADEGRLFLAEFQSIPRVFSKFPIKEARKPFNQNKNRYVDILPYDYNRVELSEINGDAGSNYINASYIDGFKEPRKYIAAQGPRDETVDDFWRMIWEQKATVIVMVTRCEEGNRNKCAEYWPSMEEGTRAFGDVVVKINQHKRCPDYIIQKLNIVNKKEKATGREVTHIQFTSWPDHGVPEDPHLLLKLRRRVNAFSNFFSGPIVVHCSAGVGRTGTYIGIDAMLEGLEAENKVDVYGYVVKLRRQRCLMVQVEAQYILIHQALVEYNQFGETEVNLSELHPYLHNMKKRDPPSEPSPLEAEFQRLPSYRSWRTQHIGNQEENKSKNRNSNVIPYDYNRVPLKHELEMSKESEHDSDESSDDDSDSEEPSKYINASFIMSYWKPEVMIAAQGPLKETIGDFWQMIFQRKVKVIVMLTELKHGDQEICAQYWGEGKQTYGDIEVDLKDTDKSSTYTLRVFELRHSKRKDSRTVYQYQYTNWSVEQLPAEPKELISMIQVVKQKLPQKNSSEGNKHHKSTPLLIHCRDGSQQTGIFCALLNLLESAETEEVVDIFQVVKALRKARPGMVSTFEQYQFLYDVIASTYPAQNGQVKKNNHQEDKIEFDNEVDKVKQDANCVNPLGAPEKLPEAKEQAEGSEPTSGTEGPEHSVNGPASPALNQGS

Adenosine receptor A2a = Adenosine receptor A2a (Homo sapiens, UniProt P29274); test: DRUGMATRIX: Adenosine A2A radioligand binding (ligand: […]); type: cell membranes, HEK293, Membrane; conditions: hek293; Not Active = under 50% inhibition at 10 µM

Measured: IC50

C-C chemokine receptor type 5, sequence (P51681 whole entry): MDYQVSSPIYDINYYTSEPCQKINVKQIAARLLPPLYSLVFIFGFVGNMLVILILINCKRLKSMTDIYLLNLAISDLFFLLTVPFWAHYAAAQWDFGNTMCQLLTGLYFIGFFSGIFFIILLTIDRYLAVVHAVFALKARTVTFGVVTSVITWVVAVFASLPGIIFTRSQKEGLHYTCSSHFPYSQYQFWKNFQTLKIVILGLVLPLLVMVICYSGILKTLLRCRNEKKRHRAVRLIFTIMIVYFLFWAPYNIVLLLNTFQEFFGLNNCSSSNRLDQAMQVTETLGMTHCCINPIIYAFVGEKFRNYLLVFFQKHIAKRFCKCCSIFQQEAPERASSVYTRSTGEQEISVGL
Adenosine receptor A2a, sequence (P29274 whole entry): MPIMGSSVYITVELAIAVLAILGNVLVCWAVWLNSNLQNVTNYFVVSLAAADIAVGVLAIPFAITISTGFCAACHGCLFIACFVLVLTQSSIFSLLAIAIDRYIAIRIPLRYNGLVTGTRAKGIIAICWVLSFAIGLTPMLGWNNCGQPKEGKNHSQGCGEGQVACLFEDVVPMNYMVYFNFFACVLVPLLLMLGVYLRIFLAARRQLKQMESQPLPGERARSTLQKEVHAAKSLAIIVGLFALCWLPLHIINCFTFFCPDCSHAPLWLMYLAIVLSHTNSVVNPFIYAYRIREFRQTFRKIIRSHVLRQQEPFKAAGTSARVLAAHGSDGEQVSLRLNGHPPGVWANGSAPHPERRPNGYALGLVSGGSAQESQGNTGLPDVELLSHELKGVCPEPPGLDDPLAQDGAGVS

OCc1ccccc1 [BENZYL ALCOHOL]
Not Active: all assays above

CCCc1cc(=O)[nH]c(=S)[nH]1 [PROPYLTHIOURACIL]
Not Active: all assays above

N#C[C@H](O[C@@H]1O[C@H](CO[C@@H]2O[C@H](CO)[C@@H](O)[C@H](O)[C@H]2O)[C@@H](O)[C@H](O)[C@H]1O)c1ccccc1 [AMYGDALIN]
Not Active: all assays above

O=P1(NCCCl)OCCCN1CCCl (stereo not given) [IFOSFAMIDE]
Not Active: all assays above

C=C1CC[C@H](O)C/C1=C/C=C1\CCC[C@]2(C)[C@@H]([C@H](C)/C=C/[C@H](C)C(C)C)CC[C@@H]12 [ERGOCALCIFEROL]
Not Active: all assays above

CC=CC(=O)N(CC)c1ccccc1C
Not Active: all assays above

COc1ccc(CN(CCN(C)C)c2ccccn2)cc1 [PYRILAMINE]
Not Active: all assays above

CC[C@@]1(O)C(=O)OCc2c1cc1n(c2=O)Cc2cc3ccccc3nc2-1 [CAMPTOTHECIN]
Not Active: all assays above

CC(=O)O[C@]1(C(C)=O)CC[C@H]2[C@@H]3C=C(Cl)C4=CC(=O)CC[C@]4(C)[C@H]3CC[C@@]21C [CHLORMADINONE ACETATE]
Not Active: all assays above

C[C@]12CCC(=O)C=C1CC[C@@H]1[C@@H]2C(=O)C[C@@]2(C)[C@H]1CC[C@]2(O)C(=O)CO [CORTISONE]
Not Active: all assays above

Brc1ccccc1 [BROMOBENZENE]
Not Active: all assays above

O=C1NC(=O)C(c2ccccc2)(c2ccccc2)N1 [PHENYTOIN]
Not Active: all assays above

C=C(C)[C@@H]1[C@H]2OC(=O)[C@@H]1[C@]1(O)C[C@H]3O[C@]34C(=O)O[C@H]2[C@]14C [PICROTOXININ]
Not Active: all assays above

CC(=O)[C@@]1(O)CC[C@H]2[C@@H]3C[C@H](C)C4=CC(=O)C=C[C@]4(C)[C@@]3(F)[C@@H](O)C[C@@]21C [FLUOROMETHOLONE]
Not Active: all assays above

Nc1nc2c(ncn2COC(CO)CO)c(=O)[nH]1 [GANCICLOVIR]
Not Active: all assays above

O=C1CCc2cc(OCCCCc3nnnn3C3CCCCC3)ccc2N1 [CILOSTAZOL]
Not Active: all assays above

COCc1c(C(C)C)nc(C(C)C)c(/C=C/[C@@H](O)C[C@@H](O)CC(=O)O)c1-c1ccc(F)cc1 [CERIVASTATIN]
Not Active: all assays above

O=C(O)c1cn(C2CC2)c2cc(N3CCNCC3)c(F)cc2c1=O [CIPROFLOXACIN]
Not Active: all assays above

CC1(C)S[C@@H]2[C@H](NC(=O)[C@H](N)c3ccc(O)cc3)C(=O)N2[C@H]1C(=O)O [AMOXICILLIN]
Not Active: all assays above

CCOC(=O)OC(C)OC1=C(C(=O)Nc2ccccn2)N(C)S(=O)(=O)c2ccccc21 (stereo not given) [AMPIROXICAM]
Not Active: all assays above

NCC1(CC(=O)O)CCCCC1 [GABAPENTIN]
Not Active: all assays above

CCc1ccc(C(=O)C(C)CN2CCCCC2)cc1 (stereo not given) [EPERISONE]
Not Active: all assays above

CN1CCC[C@H]1c1cccnc1 [NICOTINE]
Not Active: all assays above

NCC(=O)O [GLYCINE]
Not Active: all assays above

CC1(C)S[C@@H]2[C@H](NC(=O)[C@H](NC(=O)N3CCNC3=O)c3ccccc3)C(=O)N2[C@H]1C(=O)O [AZLOCILLIN]
Not Active: all assays above
